Measurements from PMC5035018, “Arachidonic Acid Metabolite 19(S)-HETE Induces Vasorelaxation and Platelet Inhibition by Activating Prostacyclin (IP) Receptor” (PLoS ONE, 2016).

Biological target: T1, prostacyclin (IP) receptor (Homo sapiens, UniProt P43119)
T1 construct: gene PTGIR; human IP receptor cDNA expressed in COS-1 cells
Test: [3H]-iloprost competition radioligand binding on transfected COS-1 cells (also cAMP EC50 […])
Format: cell-based

T1 sequence (P43119 1-383): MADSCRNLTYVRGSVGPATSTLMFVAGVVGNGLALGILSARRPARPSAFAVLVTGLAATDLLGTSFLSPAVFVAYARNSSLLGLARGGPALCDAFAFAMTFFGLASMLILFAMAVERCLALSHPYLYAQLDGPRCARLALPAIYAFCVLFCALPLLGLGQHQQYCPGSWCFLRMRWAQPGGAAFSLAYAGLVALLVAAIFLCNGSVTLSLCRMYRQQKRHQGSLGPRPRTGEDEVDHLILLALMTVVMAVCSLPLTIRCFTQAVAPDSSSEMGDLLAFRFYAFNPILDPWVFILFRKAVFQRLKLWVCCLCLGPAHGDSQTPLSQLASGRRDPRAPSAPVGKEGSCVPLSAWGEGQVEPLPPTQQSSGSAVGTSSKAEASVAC

Work on C[C@H](O)CCC/C=C\C/C=C\C/C=C\C/C=C\CCCC(=O)O [19(S)-HETE, 19(S)-hydroxy-5Z,8Z,11Z,14Z-eicosatetraenoic acid] yielded a Ki of 660 nM.
